Entries after “also recorded” stand apart in the source; their conditions may differ.
Experiment: In vitro simulated GI digestion (INFOGEST, static), stability by RP-HPLC and LC-MS
Format: in vitro ADME
Settings: 37°C
Protocol: In vitro simulated oral, gastric, and small intestinal digestion was adopted from standardized INFOGEST protocol ([Brodkorb et al., 2019]) in three independent replicates. The initial concentration of bacteriocins was selected in order to have sufficient quantity in the digestion mixture to conduct both activity assay by agar well diffusion and by RP-HPLC for quantification.
The entire digestion procedure was performed at 37°C.
Oral conditions: 5 mL of a 8 mg/mL bacteriocin solution (in water) were mixed with simulated salivary fluid [SSF: KCl 15.1 mM, KH2PO4 3.7 mM, NAHCO3 13.6 mM, MgCl2(H2O)6 0.15 mM, (NH4)2CO3 0.06 mM, HCl 1.1mM, CaCl2 (H2O)2 1.5 mM] in 1:1 (v/v) ratio, and the final solution was incubated for 2 min at 37°C.
Gastric conditions: The sample from the oral condition was diluted in 1:1 (v/v) ratio with simulated gastric fluid [SGF: KCl 6.9 mM, KH2PO4 0.9 mM, NAHCO3 25 mM, NaCl 47.2 mM, MgCl2(H2O)6 0.12 mM, (NH4)2CO3 0.5 mM, HCl 15.6 mM, CaCl2 (H2O)2, 0.15 mM] containing pepsin (2000 U/mL in the gastric mixture), and lipase (60 U/mL in the gastric mixture). […]
Small intestine conditions: Samples from gastric conditions were diluted in 1:1 (v/v) ratio with 20 mL of simulated intestinal fluid[SIF KCl 6.8 mM, KH2PO4 0.8 mM, NAHCO3 85 mM, NaCl 38.4 mM, MgCl2(H2O)6 0.33 Mm, HCl 8.4 mM, CaCl2 (H2O)2, 0.6 mM] containing bile salt (10 mmol/L in the final […] mixture) and pancreatin (100 U/mL in final digestion mixture) to acquire a final volume of 40 mL. […] Bacteriocins in the different samples were analyzed by analytical HPLC-UV and liquid-chromatography mass spectrometry (LC-MS/MS). […]
The digestion mixtures were analyzed by LC-MS/MS on an ultra-high-performance LC system (Ultimate 3000 RSLC, Thermo Fisher Scientific) connected to high-resolution electrospray ionization – quadrupole – time of flight (ESI-Q-TOF) mass spectrometer (Maxis II ETD, Bruker Daltonics). […] Data-dependent LC-MS/MS data were acquired in positive ion mode in the mass range m/z 250–2500, using collision induced dissociation with collision energy calculated from m/z and charge states. […]

In the case of `C=C(NC(=O)[C@@H](NC(=O)[C@H](Cc1c[nH]cn1)NC(=O)[C@@H](NC(=O)[C@H](CO)NC(=O)[C@@H]1CS[C@@H](C)[C@H]2NC(=O)[C@H](C)NC(=O)[C@H](NC(=O)[C@H](CCCCN)NC(=O)[C@H](CCSC)NC(=O)[C@H](CC(N)=O)NC(=O)[C@@H]3CS[C@@H](C)[C@@H](NC(=O)[C@H](CCCCN)NC(=O)[C@@H]4CS[C@@H](C)[C@@H](NC(=O)[C@@H]5CSC[C@@H](NC(=O)/C(=C/C)NC(=O)[C@@H](N)[C@@H](C)CC)C(=O)N[C@@H]([C@@H](C)CC)C(=O)NC(=C)C(=O)N[C@@H](CC(C)C)C(=O)N5)C(=O)N5CCC[C@H]5C(=O)NCC(=O)N4)C(=O)NCC(=O)N[C@@H](C)C(=O)N[C@@H](CC(C)C)C(=O)N[C@@H](CCSC)C(=O)NCC(=O)N3)[C@H](C)SC[C@H](NC2=O)C(=O)N[C@@H](CC(N)=O)C(=O)N1)[C@@H](C)CC)C(C)C)C(=O)N[C@@H](CCCCN)C(=O)O` [nisin Z], the “Stability in gastric conditions” value (SGF with pepsin 2000 U/mL and lipase 60 U/mL, pH 3, 90 min, shaking, RP-HPLC and activity, three independent replicates) is reported as “good gastric stability”, the “Stability in small intestinal conditions” value (SIF with bile salt 10 mmol/L and pancreatin 100 U/mL, pH 7, 2 h, RP-HPLC and activity, three independent replicates) is reported as “significantly degraded; also recorded: completely degraded” and the “Stability in the GI tract (whole simulated digestion)” value (oral + gastric + small intestinal conditions) is reported as “complete degradation”.

From article PMC8824275, “Gastrointestinal Stability and Cytotoxicity of Bacteriocins From Gram-Positive and Gram-Negative Bacteria: A Comparative in vitro Study” (Frontiers in Microbiology, 2022)
